# Reference: article PMC3838870 (Journal of inorganic biochemistry, 2013)
# Where two headings read alike, the source gives them in different places.
# What was measured:
# [1] = tested on: chloroquine-resistant (7G8) Plasmodium falciparum; conditions: read-out: Growth inhibition efficacy (IC50), 7G8 P. falciparum; chloroquine-resistant 7G8, mean ± SD (n = 6); previously reported; cited from earlier work
# [2] = Chelator-induced erythrocyte hemolysis; type: cell-based, human; conditions: human, human erythrocyte suspension, pH 7.4
# [3] = tested on: chloroquine-sensitive (3D7) Plasmodium falciparum; assay: Parasite growth inhibition, [3H]-hypoxanthine incorporation, 3D7; type: cell-based
# [4] = tested on: chloroquine-sensitive (3D7) Plasmodium falciparum; conditions: read-out: IC50, 3D7 malaria strain; cited from earlier work
# human erythrocytes = assay: Chelator-induced erythrocyte hemolysis; type: cell-based; conditions: control 0.0175± 0.0005
# [5] = tested on: non-parasitized human erythrocytes; assay: Effect of chelators on erythrocyte shape; type: cell-based; conditions: 2.5–15 μM chelator, 48 h, Giemsa staining
# [6] = tested on: synchronized chloroquine-sensitive P. falciparum (3D7); assay: Stage-specific parasite growth; type: cell-based, Plasmodium falciparum; conditions: chelator 7.5 μM, 3D7 synchronized at ring-stage
Effect on erythrocyte shape [5],Compound,IC50 [1] [µM],hemolysis at 10 μM [2] [%],hemolysis at 20 μM [2] [%],hemolysis at 30 μM [2] [%],hemolysis at 45 μM [2] [%],hemolysis at 60 μM [2] [%],"IC50 ([3]; Plasmodium falciparum, 3D7, 48 h, read-out: Growth inhibition efficacy (IC50), 3D7 P. falciparum) [µM]","IC50 ([3]; Plasmodium falciparum, 3D7, 48 h, read-out: Growth inhibition efficacy (IC50), 3D7 P. falciparum, chloroquine-sensitive 3D7, 48 h culture, mean ± SD (n = 6)) [µM]",hemolysis at 15 μM [2] [%],hemolysis at 25 μM [2] [%],IC50 [4] [µM],"Supernatant hemoglobin, % MCHC (hemolysis) (human erythrocytes; chelator 0.5 μM) [% MCHC]","Supernatant hemoglobin, % MCHC (hemolysis) (human erythrocytes; chelator 1 μM) [% MCHC]","Supernatant hemoglobin, % MCHC (hemolysis) (human erythrocytes; chelator 1.5 μM) [% MCHC]","Supernatant hemoglobin, % MCHC (hemolysis) (human erythrocytes; chelator 2 μM) [% MCHC]","Supernatant hemoglobin, % MCHC (hemolysis) (human erythrocytes; chelator 3 μM) [% MCHC]","% Inhibition, rings, 24 hour culture [6] [%]","IC50 ([3]; read-out: Growth inhibition efficacy (IC50), 3D7 P. falciparum, chloroquine-sensitive 3D7, 48 h culture, mean ± SD (n = 6)) [µM]"
–,"CC(=O)N(O)CCCCCNC(=O)CCC(=O)N(O)CCCCCNC(=O)CCC(=O)N(O)CCCCCN [DFO, desferrioxamine]",18.5,0.0193 ± 0.0005,0.0182 ± 0.0005,0.0186 ± 0.0008,0.0192 ± 0.0001,0.0182 ± 0.0002,23.4 ± 3.4,23.5,–,–,–,–,–,–,–,–,–,–
–,"Cc1ncc(CO)c(/C=N/NC(=O)c2ccncc2)c1O [PIH, pyridoxal isonicotinoyl hydrazone]",–,0.0195 ± 0.0004,0.019 ± 0.0006,0.0192 ± 0.0008,–,–,–,–,0.0188 ± 0.0003,0.0193 ± 0.0004,50,–,–,–,–,–,–,–
no apparent effect on erythrocyte shape,"O=C(NN=Cc1c(O)ccc2ccccc12)c1ccncc1 [compound 311, 2-hydroxy-1-naphthylaldehyde isonicotinoyl hydrazone]",4.46 ± 0.3,–,–,–,–,–,–,–,–,–,–,0.0193±0.0005,0.0195±0.0010,0.0200±0.0006,0.0203±0.0005,0.0197±0.0005,99 ± 8.4,4.45 ± 1.7
